The target of one data set is T1, rKv4.2 E283A (Rattus norvegicus, UniProt Q63881, E283A).
T1 construct: expressed in transfected cells; host or cells: HEK293T
As to the kind of experiment: Patch clamp of rKv4.2 mutant E283A. Format: cell-based. Particulars: mean ± SEM. Background: The patch-clamp technique gives a direct electrical read-out from membranes.

The target in a further data set is hERG (Homo sapiens, UniProt Q12809). As to the kind of experiment: in vitro. The following applies: pH 7.4, SEM.
The subject of the next data set is C57BL/6 mice. The data set is described as follows: Open field test. The following applies: 2 mg kg-1 i.p.; 2 min; vs saline; n = 4, p = 0.2000. Format: in vivo, mouse. Here is the method:
Open Field Test: The C57BL/6 mice (weight 18–20 g, 6–8 weeks, both sex) were randomly assigned to one of two groups: Saline (2 males and 2 females) and 2 mg kg^−1 mGpTx1‐SA (2 males and 2 females). All mice received intraperitoneal administration of the respective substances and were allowed 20 min for the drugs to take effect. Following drug administration, the mice were individually placed in square transparent chambers (50 × 50 cm). They were allowed to explore freely under normal light. The movements and trajectories of the mice were recorded using video and computer systems over a 2‐minute period for subsequent analysis.

Positions of bridges follow the written chain, without caps; N, C: chain ends. Residues, ends and D or L forms follow the SMILES beside them.

Chain of hERG (Q12809 whole entry): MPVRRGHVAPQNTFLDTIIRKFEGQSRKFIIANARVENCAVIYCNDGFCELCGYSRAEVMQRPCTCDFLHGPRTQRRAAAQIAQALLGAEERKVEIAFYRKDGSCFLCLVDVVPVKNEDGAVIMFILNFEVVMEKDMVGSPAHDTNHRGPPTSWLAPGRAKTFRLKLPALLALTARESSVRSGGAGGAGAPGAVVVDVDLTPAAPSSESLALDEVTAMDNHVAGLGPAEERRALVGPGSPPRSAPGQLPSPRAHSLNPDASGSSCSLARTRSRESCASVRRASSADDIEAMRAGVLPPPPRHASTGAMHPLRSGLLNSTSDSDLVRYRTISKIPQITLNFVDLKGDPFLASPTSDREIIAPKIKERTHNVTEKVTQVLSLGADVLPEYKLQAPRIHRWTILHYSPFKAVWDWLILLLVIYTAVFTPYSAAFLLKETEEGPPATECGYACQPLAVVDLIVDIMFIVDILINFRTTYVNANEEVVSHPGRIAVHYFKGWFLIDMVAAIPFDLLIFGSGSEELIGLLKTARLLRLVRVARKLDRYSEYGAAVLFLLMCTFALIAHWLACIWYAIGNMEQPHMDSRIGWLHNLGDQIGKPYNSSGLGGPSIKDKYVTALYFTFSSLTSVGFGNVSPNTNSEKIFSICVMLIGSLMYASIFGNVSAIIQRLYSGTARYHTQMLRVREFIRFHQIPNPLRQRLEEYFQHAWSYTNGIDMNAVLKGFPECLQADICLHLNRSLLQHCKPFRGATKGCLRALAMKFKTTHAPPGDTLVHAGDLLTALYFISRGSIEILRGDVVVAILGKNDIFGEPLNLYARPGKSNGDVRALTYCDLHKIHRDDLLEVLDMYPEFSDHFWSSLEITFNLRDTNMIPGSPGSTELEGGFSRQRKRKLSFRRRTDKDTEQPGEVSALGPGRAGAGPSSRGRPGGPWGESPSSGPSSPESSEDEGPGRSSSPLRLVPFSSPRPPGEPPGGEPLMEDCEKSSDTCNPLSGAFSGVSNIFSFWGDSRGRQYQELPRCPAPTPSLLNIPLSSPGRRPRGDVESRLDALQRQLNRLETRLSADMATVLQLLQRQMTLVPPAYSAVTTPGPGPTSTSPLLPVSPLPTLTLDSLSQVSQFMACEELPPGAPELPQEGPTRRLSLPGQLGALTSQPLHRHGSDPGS
T1 sequence (Q63881 whole entry E283A): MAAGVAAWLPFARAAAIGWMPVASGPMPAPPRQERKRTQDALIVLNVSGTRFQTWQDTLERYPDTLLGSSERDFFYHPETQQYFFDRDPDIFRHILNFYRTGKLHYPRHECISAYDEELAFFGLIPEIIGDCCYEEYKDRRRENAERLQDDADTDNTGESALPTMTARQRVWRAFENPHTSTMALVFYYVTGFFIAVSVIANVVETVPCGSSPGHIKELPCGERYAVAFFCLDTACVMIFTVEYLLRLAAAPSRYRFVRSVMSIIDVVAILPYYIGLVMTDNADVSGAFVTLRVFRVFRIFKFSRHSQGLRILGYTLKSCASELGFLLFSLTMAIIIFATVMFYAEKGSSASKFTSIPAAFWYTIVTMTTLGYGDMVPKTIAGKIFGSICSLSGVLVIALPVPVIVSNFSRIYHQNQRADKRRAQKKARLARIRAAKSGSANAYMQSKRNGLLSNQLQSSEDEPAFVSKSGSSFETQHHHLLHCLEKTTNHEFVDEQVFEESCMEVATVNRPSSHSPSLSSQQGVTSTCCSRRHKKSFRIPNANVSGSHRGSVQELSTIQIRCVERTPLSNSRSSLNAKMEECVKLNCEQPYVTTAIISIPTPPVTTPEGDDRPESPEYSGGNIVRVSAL

On to `CC(C)C[C@H](NC(=O)[C@H](Cc1ccc(O)cc1)NC(=O)[C@@H](NC(=O)[C@H](CCCCN)NC(=O)[C@@H]1CSSC[C@@H]2NC(=O)[C@H](CCC(=O)O)NC(=O)[C@H](CC(N)=O)NC(=O)[C@H](CCCCN)NC(=O)CNC(=O)[C@@H]3CCCN3C(=O)[C@H]([C@@H](C)O)NC(=O)[C@@H]3CSSC[C@H](NC(=O)[C@H](C)NC(=O)[C@H](Cc4ccc(O)cc4)NC(=O)[C@H](CC(N)=O)NC(=O)[C@@H]4CCCN4C(=O)[C@H](CSSC[C@H](NC(=O)CN)C(=O)N[C@@H](CCCCN)C(=O)NCC(=O)N[C@@H](Cc4ccccc4)C(=O)NCC(=O)N[C@@H](CC(=O)O)C(=O)N[C@@H](CO)C(=O)N3)NC2=O)C(=O)N[C@@H](CO)C(=O)N[C@@H](CO)C(=O)N[C@@H](CCCCN)C(=O)N[C@@H](Cc2c[nH]cn2)C(=O)N[C@@H](CCCCN)C(=O)N[C@@H](Cc2c[nH]c3ccccc23)C(=O)N1)C(C)C)C(N)=O` [HNTX-III] (H-GCKGFGDSCTPGKNECCPNYACSSKHKWCKVYL-NH2; disulfide 2-17, 9-22, 16-29), for which, on rKv4.2 E283A, half-maximal inhibition (IC50) was put at 0.987 ± 0.303 µM.

Consider `CSCC[C@@H]1NC(=O)CNC(=O)[C@H](CCC(=O)O)NC(=O)[C@@H]2CSSC[C@H](NC(=O)[C@@H](N)Cc3ccc(O)cc3)C(=O)N[C@@H](CCC(N)=O)C(=O)N[C@@H](CCCCN)C(=O)N[C@@H](Cc3c[nH]c4ccccc34)C(=O)N[C@@H](CCSC)C(=O)N[C@@H](Cc3c[nH]c4ccccc34)C(=O)N[C@@H]([C@@H](C)O)C(=O)N[C@H]3CSSC[C@H](NC(=O)[C@H](C(C)C)NC1=O)C(=O)N[C@@H](CCCNC(=N)N)C(=O)N[C@@H](CC(C)C)C(=O)N[C@@H](Cc1c[nH]c4ccccc14)C(=O)N[C@H](C(=O)N[C@@H](CCCCN)C(=O)N[C@@H](CCCCN)C(=O)N[C@@H](CCCCN)C(=O)N[C@@H](CC(C)C)C(=O)N[C@@H](Cc1c[nH]c4ccccc14)C(=O)O)CSSC[C@H](NC(=O)[C@H](CCCCN)NC(=O)[C@H](CCCNC(=N)N)NC(=O)[C@H](CCC(=O)O)NC(=O)[C@H](CO)NC(=O)[C@H](CC(=O)O)NC3=O)C(=O)N2` [ProTx-II], for which the IC50 (usually the point on the concentration scale where inhibition reaches its midpoint) against hERG came to 0.0297 ± 0.0028 µM.

Consider `CC[C@H](C)[C@@H]1NC(=O)[C@@H]2CSSC[C@@H]3NC(=O)[C@H](C(C)C)NC(=O)[C@H](CC(C)C)NC(=O)[C@H](CC(N)=O)NC(=O)[C@@H]4CCCN4C(=O)[C@H](CCCNC(=N)N)NC(=O)[C@H](CSSC[C@H](NC(=O)[C@@H](N)CC(=O)O)C(=O)N[C@@H](CC(C)C)C(=O)NCC(=O)N[C@@H](C)C(=O)N[C@@H](Cc4ccccc4)C(=O)N[C@@H](CCCNC(=N)N)C(=O)N[C@@H](CCCCN)C(=O)N2)NC(=O)[C@H](CSSC[C@@H](C(=O)N[C@@H](CCCCN)C(=O)N[C@@H](Cc2ccc(O)cc2)C(=O)N[C@H](C(=O)N[C@@H](Cc2ccccc2)C(N)=O)C(C)C)NC(=O)[C@H](Cc2c[nH]c4ccccc24)NC(=O)[C@H](CCCNC(=N)N)NC(=O)[C@H](Cc2c[nH]cn2)NC(=O)[C@H](C)NC(=O)[C@H](CO)NC(=O)[C@H](CO)NC3=O)NC(=O)[C@H](CCCCN)NC(=O)[C@H](CC(=O)O)NC(=O)[C@H](CC(N)=O)NC(=O)[C@H](CC(=O)O)NC(=O)[C@@H]2CCCN2C1=O` [mGpTx1-SA] (H-DCLGAFRKCIPDNDKCCRPNLVCSSAHRWCKYVF-NH2; disulfide 2-17, 9-23, 16-30), for which, in the data set on C57BL/6 mice, the “exploratory and locomotor behavior, open-field test” value was “did not influence significantly”.
